Measured values reported in the supplement of paper PMC11923942.

Assays:
[1] = GC retention time (DB-5MS, GC-APCI); higher = later elution
Protocol: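 Standards of hydrophobic organic contaminants were analysed by GC-APCI (positive mode, dry or wet source conditions) coupled to cyclic ion mobility-QTOF MS. CCS was measured for the base ion (sometimes a fragment ion) in N2 drift gas (one-pass mode, calibrated with a Waters 22-compound mix). 5 mL/min).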

[2] = collision cross section (N2, base ion); higher = larger ion cross section
Protocol: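 Standards of hydrophobic organic contaminants were analysed by GC-APCI (positive mode, dry or wet source conditions) coupled to cyclic ion mobility-QTOF MS. CCS was measured for the base ion (sometimes a fragment ion) in N2 drift gas (one-pass mode, calibrated with a Waters 22-compound mix).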

Structure (SMILES) | GC retention time [1] | collision cross section [2]
Brc1ccc(Oc2ccc(Br)cc2Br)cc1 [PBDE 28] (APCI source condition: Dry, base ion: M+.) | 20.1 min | 154.31 Å²
Brc1cccc(Oc2ccc(Br)c(Br)c2)c1 [PBDE 35] (APCI source condition: Dry, base ion: M+.) | 20.3 min | 154.86 Å²
Brc1ccc(Oc2ccc(Br)cc2Br)c(Br)c1 [PBDE 47] (APCI source condition: Dry, base ion: M+.) | 22.2 min | 162.71 Å²
Brc1ccc(Oc2cc(Br)ccc2Br)c(Br)c1 [PBDE 49] (APCI source condition: Dry, base ion: M+.) | 21.8 min | 163.07 Å²
Brc1ccc(Oc2ccc(Br)c(Br)c2)c(Br)c1 [PBDE 66] (APCI source condition: Dry, base ion: M+.) | 22.5 min | 163.83 Å²
Brc1ccc(Oc2ccc(Br)c(Br)c2)cc1Br [PBDE 77] (APCI source condition: Dry, base ion: M+.) | 23 min | 164.62 Å²
Brc1ccc(Oc2ccc(Br)c(Br)c2Br)c(Br)c1 [PBDE 85] (APCI source condition: Dry, base ion: M+.) | 25 min | 170.22 Å²
Brc1ccc(Oc2cc(Br)c(Br)cc2Br)c(Br)c1 [PBDE 99] (APCI source condition: Dry, base ion: M+.) | 24.2 min | 169.31 Å²
Brc1ccc(Oc2c(Br)cc(Br)cc2Br)c(Br)c1 [PBDE 100] (APCI source condition: Dry, base ion: M+.) | 23.7 min | 169.85 Å²
Brc1cc(Br)c(Oc2cc(Br)c(Br)cc2Br)cc1Br [PBDE 153] (APCI source condition: Dry, base ion: M+.) | 26 min | 180.67 Å²
Brc1cc(Br)c(Oc2cc(Br)c(Br)cc2Br)c(Br)c1 [PBDE 154] (APCI source condition: Dry, base ion: M+.) | 25.4 min | 178.18 Å²
Brc1cccc(Oc2c(Br)c(Br)c(Br)c(Br)c2Br)c1Br [PBDE 173] (APCI source condition: Dry, base ion: M+.) | 30.2 min | 185.08 Å²
Brc1cc(Br)c(Oc2cc(Br)c(Br)c(Br)c2Br)c(Br)c1 [PBDE 182] (APCI source condition: Dry, base ion: M+.) | 28.4 min | 185.51 Å²
Brc1cc(Br)c(Oc2c(Br)cc(Br)c(Br)c2Br)cc1Br [PBDE 183] (APCI source condition: Dry, base ion: M+.) | 28.2 min | 184.97 Å²
Brc1cc(Br)c(Oc2c(Br)cc(Br)c(Br)c2Br)c(Br)c1 [PBDE 184] (APCI source condition: Dry, base ion: M+.) | 27.8 min | 181.4 Å²
Brc1ccc(Br)c(Oc2c(Br)c(Br)c(Br)c(Br)c2Br)c1 [PBDE 185] (APCI source condition: Dry, base ion: M+.) | 28.6 min | 182.95 Å²
Brc1cc(Oc2c(Br)cc(Br)c(Br)c2Br)cc(Br)c1Br [PBDE 191] (APCI source condition: Dry, base ion: M+.) | 29 min | 187.91 Å²
Clc1ccc(Cl)c(-c2c(Cl)ccc(Cl)c2Cl)c1Cl [PCB136] (APCI source condition: Dry, base ion: M+.) | 19.4 min | 155.08 Å²
Clc1ccc(-c2ccccc2)cc1 [PCB 3] (APCI source condition: Dry, base ion: M+.) | 13.2 min | 137.62 Å²
Clc1ccccc1-c1ccccc1Cl [PCB 4] (APCI source condition: Dry, base ion: M+.) | 13.6 min | 137.64 Å²
Clc1ccc(-c2ccccc2Cl)cc1 [PCB 7] (APCI source condition: Dry, base ion: M+.) | 14.6 min | 137.98 Å²
Clc1ccc(Cl)c(-c2ccccc2Cl)c1 [PCB 18] (APCI source condition: Dry, base ion: M+.) | 15.4 min | 140.01 Å²
Clc1cccc(-c2cccc(Cl)c2Cl)c1 [PCB 20] (APCI source condition: Dry, base ion: M+.) | 16.6 min | 140.68 Å²
Clc1ccc(-c2ccc(Cl)cc2Cl)cc1 [PCB 28] (APCI source condition: Dry, base ion: M+.) | 16.4 min | 142.54 Å²

Structure (SMILES) | GC retention time [1] | collision cross section [2]
Clc1cccc(-c2cccc(Cl)c2Cl)c1Cl [PCB 40] (APCI source condition: Dry, base ion: M+.) | 17.9 min | 144.96 Å²
Clc1ccc(Cl)c(-c2cc(Cl)ccc2Cl)c1 [PCB 52] (APCI source condition: Dry, base ion: M+.) | 17.1 min | 149.21 Å²
Clc1ccc(Cl)c(-c2c(Cl)cccc2Cl)c1 [PCB 53] (APCI source condition: Dry, base ion: M+.) | 16.6 min | 144.4 Å²
Clc1cc(-c2ccccc2)c(Cl)c(Cl)c1Cl [PCB 61] (APCI source condition: Dry, base ion: M+.) | 18.3 min | 148.05 Å²
Clc1ccc(Cl)c(-c2cc(Cl)c(Cl)cc2Cl)c1 [PCB 101] (APCI source condition: Dry, base ion: M+.) | 18.8 min | 155.45 Å²
Clc1ccc(-c2c(Cl)ccc(Cl)c2Cl)cc1Cl [PCB 110] (APCI source condition: Dry, base ion: M+.) | 19.4 min | 152.9 Å²
Clc1ccc(-c2cc(Cl)c(Cl)cc2Cl)cc1Cl [PCB 118] (APCI source condition: Dry, base ion: M+.) | 19.9 min | 156.06 Å²
Clc1ccc(-c2ccc(Cl)c(Cl)c2Cl)c(Cl)c1Cl [PCB 128] (APCI source condition: Dry, base ion: M+.) | 21.3 min | 158.12 Å²
Clc1cc(Cl)c(-c2ccc(Cl)c(Cl)c2Cl)cc1Cl [PCB 138] (APCI source condition: Dry, base ion: M+.) | 20.8 min | 159.68 Å²
Clc1cc(Cl)c(-c2c(Cl)ccc(Cl)c2Cl)cc1Cl [PCB 149] (APCI source condition: Dry, base ion: M+.) | 19.8 min | 158.29 Å²
Clc1cc(Cl)c(-c2cc(Cl)c(Cl)cc2Cl)cc1Cl [PCB 153] (APCI source condition: Dry, base ion: M+.) | 20.3 min | 161.05 Å²
Clc1ccc(-c2cc(Cl)c(Cl)c(Cl)c2Cl)c(Cl)c1Cl [PCB 170] (APCI source condition: Dry, base ion: M+.) | 22.5 min | 165.18 Å²
Clc1cc(Cl)c(-c2cc(Cl)c(Cl)c(Cl)c2Cl)cc1Cl [PCB 180] (APCI source condition: Dry, base ion: M+.) | 22 min | 166.55 Å²
Clc1cc(Cl)c(-c2c(Cl)c(Cl)cc(Cl)c2Cl)cc1Cl [PCB 187] (APCI source condition: Dry, base ion: M+.) | 21.1 min | 165.54 Å²
Clc1ccc(Cl)c(-c2c(Cl)c(Cl)c(Cl)c(Cl)c2Cl)c1Cl [PCB 200] (APCI source condition: Dry, base ion: M+.) | 22.2 min | 167.33 Å²
Brc1cc(Br)c(Br)c(Br)c1Br [Pentabromobenzene] (APCI source condition: Dry, base ion: M+.) | 18.5 min | 135.24 Å²
Cc1c(Br)c(Br)c(Br)c(Br)c1Br [Pentabromotoluene] (APCI source condition: Dry, base ion: M+.) | 20.1 min | 140.29 Å²
Clc1cc(Cl)c(Cl)c(Cl)c1Cl [Pentachlorobenzene] (APCI source condition: Dry, base ion: M+.) | 12.4 min | 135.24 Å²
c1cc2cccc3c4cccc5cccc(c(c1)c23)c54 [Perylene] (APCI source condition: Dry, base ion: M+.) | 25 min | 143.02 Å²
c1ccc2c(c1)ccc1ccccc12 [Phenanthrene] (APCI source condition: Dry, base ion: M+.) | 15.6 min | 137.89 Å²
c1cc2ccc3cccc4ccc(c1)c2c34 [Pyrene] (APCI source condition: Dry, base ion: M+.) | 18.9 min | 137.65 Å²
CCCCCCOP(=O)(OCCCCCC)OCCCCCC [Trihexyl phosphate] (APCI source condition: Wet, base ion: [M+H]+) | 19.4 min | 201 Å²
O=P(Oc1ccccc1)(Oc1ccccc1)Oc1ccccc1 [Triphenylphosphate] (APCI source condition: Wet, base ion: [M+H]+) | 21.1 min | 168.91 Å²
